Results published in patent US10662218B2, “Analogs of celastrol” (ERX Pharmaceuticals, Inc., priority 2015, dated 2020).
In brackets after ≈: the same amount, converted by molar mass. Several values for one entry are separate records, joined by “and”; a condition that tells them apart may be missing. Equal values may be shown once. Read-outs that look alike come from different tables or passages of the source.

Key:
[1] = Compound solubility in PBS (pH 7.4), LC-MS/MS
Experimental: • Test concentration: 100 μM (1% of DMSO) • Test systems: PBS (pH 7.4) • Incubation condition: shaken (1000 rpm) for 1 h at room temperature • Sample size: Duplicates (n=2) • Bioanalytical method: LC-MS/MS

[2] = system: C57BL/6 Diet Induced Obese (DIO) mice; experiment: Oral (P.O.) administration study in DIO mice: in vivo activity, body weights; design: species or system mouse; conditions: for change in vivo at 2 mg/kg: Mus musculus, po, difference of group mean, read-out: Body weight, %-Diff
Excerpt: The purpose of this study was to assess test articles in the Diet Induced Obese (DIO) mouse.
Male C57BL/6 Diet Induced Obese (DIO) mice were received from Taconic. Animals were acclimated to housing conditions for at least 1 week prior to vehicle acclimation dosing. Animals were acclimated to oral gavage dosing with vehicle once daily for Days 11 through 14 of the predose phase.
At initiation of dosing, animals were 21 to 22 weeks old, and their body weights ranged from 29.8 to 40.1 g.
Dose formulations were administered by oral gavage once daily for 10 days at a dose volume of 2 mL/kg. Doses were based on the most recently recorded scheduled body weight.
Body weights were recorded daily on Days 11 through 14 of the predose phase. Body weights were collected for all animals daily during the dosing phase prior to dosing.
Descriptive statistics (n, mean, standard error of the mean, standard deviation) were completed. Additionally, one-way analysis of variance followed by Dunnett's post-hoc test were performed on body weight (cumulative body weight change), glucose (glucose percent change), and food consumption (cumulative food consumption). Area under the curve (for body weight, cumulative body weight change, daily body weight change, and food consumption) was computed for treatment groups. An appropriate comparison test, such as one-way analysis of variance and Dunnett's, was performed on the group means for the area under the curve computations. Any additional statistical analysis and interpretation of the results were the responsibility of the sponsor.

[3] = PBS (pH 7.4), pH 7.4, aqueous buffer, kinetic from dmso stock, Solubility (μM) Mean, Table 6-B, test concentration 100 μM (1% of DMSO), shaken (1000 rpm) 1 h at room temperature, n = 2
[4] = PBS (pH 7.4), pH 7.4, aqueous buffer, kinetic from dmso stock, Solubility (μM), Table 6-D
[5] = pH 7.4, aqueous buffer, kinetic from dmso stock, Solubility (μM) Mean, Table 6-B; PBS (pH 7.4), test concentration 100 μM (1% of DMSO), shaken (1000 rpm) 1 h at room temperature, n = 2
[6] = pH 7.4, aqueous buffer, kinetic from dmso stock, Solubility (μM), Table 6-D; PBS (pH 7.4)
[7] = 2 mg/kg oral gavage once daily, dosing phase Day 1
[8] = 2 mg/kg oral gavage once daily, dosing phase Day 1, N 5
[9] = 2 mg/kg oral gavage once daily, dosing phase Day 2
[10] = 2 mg/kg oral gavage once daily, dosing phase Day 2, N 5
[11] = 2 mg/kg oral gavage once daily, dosing phase Day 3
[12] = 2 mg/kg oral gavage once daily, dosing phase Day 3, N 5
[13] = 2 mg/kg oral gavage once daily, dosing phase Day 4
[14] = 2 mg/kg oral gavage once daily, dosing phase Day 4, N 5
[15] = 2 mg/kg oral gavage once daily, dosing phase Day 5
[16] = 2 mg/kg oral gavage once daily, dosing phase Day 5, N 5
[17] = 2 mg/kg oral gavage once daily, dosing phase Day 6
[18] = 2 mg/kg oral gavage once daily, dosing phase Day 6, N 5
[19] = Day 7, DSNG phase, 2 mg/kg, male, N=5
[20] = Day 8, DSNG phase, 2 mg/kg, male, N=5
[21] = Day 9, DSNG phase, 2 mg/kg, male, N=5
[22] = Day 10, DSNG phase, 2 mg/kg, male, N=5
[23] = Day 11, DSNG phase, 2 mg/kg, male, N=5
[24] = 168 h, Day 7, DSNG phase, 2 mg/kg, male
[25] = 192 h, Day 8, DSNG phase, 2 mg/kg, male
[26] = 216 h, Day 9, DSNG phase, 2 mg/kg, male
[27] = 240 h, Day 10, DSNG phase, 2 mg/kg, male
[28] = 264 h, Day 11, DSNG phase, 2 mg/kg, male

In the case of `CC1=C(O)C(=O)C=C2C1=CC=C1[C@@]2(C)CC[C@@]2(C)[C@@H]3C[C@](C)(NS(C)(=O)=O)CC[C@]3(C)CC[C@]12C` [ERX1175], the solubility at 1 h [1, 3] is reported as 4.03 µM (≈ 2.01 µg/mL) and the solubility at 1 h [1, 4] is reported as 4.03 µM (≈ 2.01 µg/mL).
Compound `CC(=O)N1CCN(c2ccc(OCC3COC(Cn4ccnc4)(c4ccc(Cl)cc4Cl)O3)cc2)CC1` (stereo not drawn) [Ketoconazole] has a solubility at 1 h [1, 3] of 35.7 µM (≈ 19 µg/mL), a solubility at 1 h ([1]; PBS (pH 7.4), pH 7.4, aqueous buffer, kinetic from dmso stock, Solubility (μM) Mean, Table 6-C, test concentration 100 μM (1% of DMSO), shaken (1000 rpm) 1 h at room temperature, n = 2) of 35.2 µM (≈ 18.7 µg/mL) and a solubility at 1 h [1, 4] of 35.7 µM (≈ 19 µg/mL).
With `COC(=O)[C@]1(C)CC[C@]2(C)CC[C@]3(C)C4=CC=C5C(=CC(=O)C(O)=C5C)[C@]4(C)CC[C@@]3(C)[C@@H]2C1` [ERX1074] the solubility at 1 h [1, 5] was 4.19 µM (≈ 1.95 µg/mL) and the solubility at 1 h [1, 6] was 4.19 µM (≈ 1.95 µg/mL).
In the case of `CC1=C(O)C(=O)C=C2C1=CC=C1[C@@]2(C)CC[C@@]2(C)[C@@H]3C[C@](C)(C(N)=O)CC[C@]3(C)CC[C@]12C` [ERX1006], the solubility [1, 5] is reported as 1.15 µM (≈ 0.517 µg/mL), the solubility [1, 6] is reported as 1.15 µM (≈ 0.515 µg/mL) and the “Body weight %-Diff” value [2, 7] is reported as −1%. The “Body weight, Mean” value [2, 8] was 34.1 g, the “Body weight %-Diff” value [2, 9] was −2% and the “Body weight, Mean” value [2, 10] was 33.9 g. The “Body weight %-Diff” value [2, 11] was −1%, the “Body weight, Mean” value [2, 12] was 33.4 g and the “Body weight %-Diff” value [2, 13] was −2%. The “Body weight, Mean” value [2, 14] was 32.8 g, the “Body weight %-Diff” value [2, 15] was −4% and the “Body weight, Mean” value [2, 16] was 32.6 g. For the same compound, the “Body weight %-Diff” value [2, 17] was −3%, the “Body weight, Mean” value [2, 18] was 32.5 g and the “Body weight, Mean” value [2, 19] was 32.0 g. For the same compound, the “Body weight, Mean” value [2, 20] was 31.7 g, the “Body weight, Mean” value [2, 21] was 31.4 g and the “Body weight, Mean” value [2, 22] was 31.2 g. The “Body weight, Mean” value [2, 23] was 30.9 g, the change in vivo at 2 mg/kg [2, 24] was -4% and the change in vivo at 2 mg/kg [2, 25] was -6%. The change in vivo at 2 mg/kg [2, 26] was -5%, the change in vivo at 2 mg/kg [2, 27] was -7% and the change in vivo at 2 mg/kg [2, 28] was -9%. The “Individual Body Weight, PRED 11” value ([2]; individual male DIO mouse of the 2 mg/kg group, pre-dose phase day 11 (baseline)) was 37.6 g and 34.5 g and 32.2 g and 35.2 g and 36.7 g, the “Individual Body Weight, PRED 12” value ([2]; individual male DIO mouse of the 2 mg/kg group, pre-dose phase day 12 (baseline)) was 38.0 g and 35.2 g and 32.7 g and 34.8 g and 36.8 g and the “Individual Body Weight, PRED 13” value ([2]; individual male DIO mouse of the 2 mg/kg group, pre-dose phase day 13 (baseline)) was 37.4 g and 35.4 g and 32.5 g and 34.1 g and 36.3 g. For the same compound, the “Individual Body Weight, PRED 14” value ([2]; individual male DIO mouse of the 2 mg/kg group, pre-dose phase day 14 (baseline)) was 38.5 g and 35.4 g and 32.7 g and 34.3 g and 36.9 g, the “Individual Body Weight, DSNG 1” value ([2]; individual male DIO mouse, 2 mg/kg, dosing phase day 1, 2 mg/kg) was 35.7 g and 35.0 g and 32.7 g and 32.4 g and 34.9 g and the “Individual Body Weight, DSNG 2” value ([2]; individual male DIO mouse, 2 mg/kg, dosing phase day 2, 2 mg/kg) was 35.0 g and 35.6 g and 31.8 g (2×) and 35.2 g.
`CC(=O)Oc1cc2c(c(C)c1OC(C)=O)C(SC(C)C)C=C1[C@@]2(C)CC[C@@]2(C)[C@@H]3C[C@](C)(CN(C)C)CC[C@]3(C)CC[C@]12C` (stereo partly drawn) [ERX1115] gave a solubility at 1 h [1, 3] of 0.56 µM (≈ 0.349 µg/mL) and a solubility at 1 h [1, 4] of 0.557 µM (≈ 0.348 µg/mL).
Compound `CC1=C(O)C(=O)C=C2C1=CC=C1[C@@]2(C)CC[C@@]2(C)[C@@H]3C[C@](C)(C(=O)NC(CO)CO)CC[C@]3(C)CC[C@]12C` [ERX1029] has a solubility [1, 5] of 1.61 µM (≈ 0.843 µg/mL) and a solubility [1, 6] of 1.6 µM (≈ 0.841 µg/mL).
In the case of `CC1=C(O)C(=O)C=C2C1=CC=C1[C@@]2(C)CC[C@@]2(C)[C@@H]3C[C@](C)(C(=O)O)CC[C@]3(C)CC[C@]12C` [ERX1000], the solubility [1, 5] is reported as 3.89 µM (≈ 1.75 µg/mL), the solubility [1, 6] is reported as 3.89 µM (≈ 1.75 µg/mL) and the “Body weight %-Diff” value [2, 7] is reported as 0%. For the same compound, the “Body weight, Mean” value [2, 8] was 34.2 g, the “Body weight %-Diff” value [2, 9] was −1% and the “Body weight, Mean” value [2, 10] was 34.0 g. The “Body weight %-Diff” value [2, 11] was −2%, the “Body weight, Mean” value [2, 12] was 33.1 g and the “Body weight %-Diff” value [2, 13] was −3%. The “Body weight, Mean” value [2, 14] was 32.5 g, the “Body weight %-Diff” value [2, 15] was −5% and the “Body weight, Mean” value [2, 16] was 32.1 g. The “Body weight %-Diff” value [2, 17] was −6%, the “Body weight, Mean” value [2, 18] was 31.4 g and the “Body weight, Mean” value [2, 19] was 30.6 g. For the same compound, the “Body weight, Mean” value [2, 20] was 30.4 g, the “Body weight, Mean” value [2, 21] was 30.3 g and the “Body weight, Mean” value [2, 22] was 30.0 g. For the same compound, the “Body weight, Mean” value [2, 23] was 29.1 g, the change in vivo at 2 mg/kg [2, 24] was -9% and the change in vivo at 2 mg/kg [2, 25] was -10%. The change in vivo at 2 mg/kg [2, 26] was -9%, the change in vivo at 2 mg/kg [2, 27] was -10% and the change in vivo at 2 mg/kg [2, 28] was -15%.
For `CC(=O)Oc1cc2c(c(C)c1OC(C)=O)C(SC(C)C)C=C1[C@@]2(C)CC[C@@]2(C)[C@@H]3C[C@](C)(C(N)=O)CC[C@]3(C)CC[C@]12C` (stereo partly drawn) [ERX1066], the solubility at 1 h [1, 3] was 0.63 µM (≈ 0.384 µg/mL) and the solubility at 1 h [1, 4] was 0.627 µM (≈ 0.383 µg/mL).
Work on `CC1=C(O)C(=O)C=C2C1=CC=C1[C@@]2(C)CC[C@@]2(C)[C@@H]3C[C@](C)(CN4CCOCC4)CC[C@]3(C)CC[C@]12C` [ERX1116] yielded a solubility at 1 h [1, 3] of 0.47 µM (≈ 0.238 µg/mL) and a solubility at 1 h [1, 4] of 0.47 µM (≈ 0.238 µg/mL).
